Test results as given in patent US20080255252A1, “Infectious Aetiology of Prostatic Disease and Methods to Identify Causative Agents” (Tissugen Pty. Ltd., priority 2004, published 2008).

Test system: P. acnes Group 1, 2 and 3 isolates
Assay: Growth of P. acnes isolates on semi-selective Brain Heart Infusion agar containing antibiotics
Assay type: cell-based, Propionibacterium acnes
Procedure: Brain Heart Infusion Agar (Oxoid Australia Ltd) was prepared containing 0.5% Tween 80 and adjusted to a pH of 6.0 using hydrochloric acid prior to autoclaving. […] Both antibiotics were prepared freshly immediately prior to use, and the agar plates were incubated at 37° C. for 24 hrs to ensure sterility then stored at 4° C. and used within 3 weeks of preparation.
Inclusion of gentamicin as a selective agent and Tween 80 as a growth stimulant for P. acnes was previously discussed by Kishishita (1980).

Which results are given for gentamicin?
growth of some strains of P. acnes Groups 2 and 3 (at 6 μg/mL furazolidone and 4 μg/mL gentamicin in the semi-selective medium): noticeable growth inhibition; maximal concentration that allowed reasonable growth (semi-selective agar, after 7 days of anaerobic incubation): 4 µg/mL
